Key:
[1] = molecular target: T1, rCsHK (recombinant Clonorchis sinensis hexokinase, CsHK) (Clonorchis sinensis, UniProt G7YJ23); assay: G6PD-coupled NADPH assay at […] nm; format: biochemical; conditions: 3 mM glucose, with respect to ATP
T1 construct: gene CLF_109217; homotrimer about 164 kDa
T1 sequence (G7YJ23 1-449): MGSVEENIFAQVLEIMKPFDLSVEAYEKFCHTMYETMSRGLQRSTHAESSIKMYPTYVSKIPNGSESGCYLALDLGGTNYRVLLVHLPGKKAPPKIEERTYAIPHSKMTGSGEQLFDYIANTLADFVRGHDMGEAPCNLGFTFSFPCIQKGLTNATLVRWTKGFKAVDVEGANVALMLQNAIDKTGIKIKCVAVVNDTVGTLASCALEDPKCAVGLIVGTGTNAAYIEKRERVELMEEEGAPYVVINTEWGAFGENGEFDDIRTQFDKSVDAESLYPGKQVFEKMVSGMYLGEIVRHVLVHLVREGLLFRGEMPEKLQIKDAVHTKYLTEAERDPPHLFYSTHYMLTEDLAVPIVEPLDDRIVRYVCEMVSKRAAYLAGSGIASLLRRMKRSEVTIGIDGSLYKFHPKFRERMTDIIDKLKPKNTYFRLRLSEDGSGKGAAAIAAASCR

[2] = molecular target: T1, rCsHK (recombinant Clonorchis sinensis hexokinase, CsHK); assay: coupled pyruvate kinase / lactate dehydrogenase ADP assay at […] nm; format: biochemical; conditions: 0-4 mM G6P; with respect to ATP or glucose; allosteric inhibitor, dose-independent; also product
[3] = molecular target: T1, rCsHK (recombinant Clonorchis sinensis hexokinase, CsHK); assay: G6PD-coupled NADPH assay at […] nm; format: biochemical; conditions: read-out: relative enzymatic activity at 4 mM
purified protein = substrate: Nc1ncnc2c1ncn2[C@@H]1O[C@H](COP(=O)(O)OP(=O)(O)OP(=O)(O)O)[C@@H](O)[C@H]1O; assay: purified protein; format: biochemical, Clonorchis sinensis; conditions: 3 mM glucose, 15 mM MgCl2, 100 mM Tris-Cl pH 8.5, 37 °C, sigmoidal, Mg-ATP true substrate

Molecule: Nc1ncnc2c1ncn2[C@@H]1O[C@H](COP(=O)(O)OP(=O)(O)O)[C@@H](O)[C@H]1O [ADP]
- G6PD-coupled NADPH assay at 340 nm ([1]; 0-3 mM ADP, mixed allosteric effector, also product): ADP, which is a product of HK, exhibited an unusual mixed allosteric effect on CsHK

Molecule: O=P(O)(O)OC[C@H]1OC(O)[C@H](O)[C@@H](O)[C@@H]1O (some centres unmarked) [glucose-6-phosphate]
- coupled pyruvate kinase / lactate dehydrogenase ADP assay at 340 nm [2]: Different concentrations G6P displayed the net allosteric inhibition of rCsHK

Molecule: O=P(O)(O)OP(=O)(O)O [inorganic pyrophosphate]
- G6PD-coupled NADPH assay at 340 nm ([1]; 0-3 mM PPi, allosteric activator, not a substrate): Different concentrations of PPi displayed a net allosteric activation of rCsHK with respect to ATP

Molecule: O=C(C1CCCCC1)N1CC(=O)N2CCc3ccccc3C2C1 (centres unmarked) [praziquantel]
- activity at 4000 µM [3]: 45%

B1: rCsHK (recombinant Clonorchis sinensis hexokinase, CsHK) (Clonorchis sinensis) (protein)
chain: T1 sequence (G7YJ23 1-449)
notes: homotrimer about 164 kDa
- K0.5 (purified protein): 0.459 ± 0.007 mM
